Like-named read-outs stand apart in the source and are kept apart here. Some results are limits rather than exact numbers.

Data on 5 compounds can be found in patent US4243679A, “S-(3-Methyl-2-butenyl)cysteine” (priority 1978, dated 1981).

The test system of series [1] is tracheobronchial secretion. In words: Secretogogial activity, bronchial elimination of sodium fluoresceine, two animal species (overall statement). The class given is in vivo, Mouse; Rat. The note with it: oral and parenteral. The protocol:
(§1) The capacity of increasing tracheobronchial secretion was determined by the technique of bronchial elimination of sodium fluoresceine (Mawatari, Kagoshima Daigak Igaku Zasshi, 27, 561 (1976)) on two animal species and by two different administration routes: oral and parenteral.

Series [2] relates to mucus. Description: Expectorant activity, Perry-Boyd technique. The format is in vivo. The note with it: rabbit; for % increase with regard to controls: fluid collected. An excerpt:
Determination of the expectorant activity was achieved by the technique of collecting mucus of anaesthetized rabbits breathing in conditioned air at body humidity and temperature (Perry and Boyd, J. Pharmacol. Exp. Ther., 23 65(194l)), and measuring the percentage increase of fluid collected in relation to controls.
Expectorant activity. Perry-Boyd technique, in
rabbit. Oral route, n = 12 = number of test

The conditions of series [3]: oral; cited from earlier work.
Series [4] deals with tracheobronchial secretion. In words: Secretogogue activity, Mawatari's technique (bronchial elimination of sodium fluoresceine), rat. The class given is in vivo. The protocol: as §1
(§2) Secretogogue activity - Mawatari's technique
(§3) Three dose levels n = 15-40 = number of test animals
(§4) Male animals were used -

In series [5] the test system is respiratory mucus. Description: Modification of respiratory mucus composition, Giraldez-Gras method. The format is in vivo, rabbit. The protocol: By means of an original technique (Giraldez and Gras), XXVI Congr. IUPS, Abstr. 777, Paris 1977)) which allows the collection of abundant samples of mucus on conscious animals and on consecutive days, the amount of eliminated mucus, its biochemical composition and its physico-chemical constants were studied. In addition to the two standards used before, N-acetylcysteine was also administered by topic route. |Modification of mucus composition. Giraldez-Gras Method, in rabbit |Oral route n = 12-30 = number of test animals

Series [6] has as its system tracheobronchial secretion. In words: Secretogogue activity, Mawatari's technique (bronchial elimination of sodium fluoresceine), mouse. The format is in vivo. How it is done:
as §1, §2, §3, §4

A short description of series [7]: Subacute toxicity in rat (one month). The format is in vivo. As to conditions: 100, 300 and 1000 mg/kg/day. The protocol:
In order to study the toxicity of ITA 275 in the rat, this compound was given at doses of 100, 300 and 1000 mg/kg/day during one month, to 100 rats (.male./.female.=50/50)

A short description of series [8]: Acute toxicity, rat. The note with it: in vivo. From the text:
(§5) The weight of the animals was of 180±20 g for rats and >25 g for mice.

A short description of series [9]: Acute toxicity, mouse. As to conditions: in vivo.
Excerpt: as §5

In series [10] the test system is ciliary epithelium. In words: Effect on the ciliary movement: mucus transport time in isolated dog trachea. From the text:
This vehicle was also used as the blank.
Mucus transport time, in isolated dog trachea

Series [11] is described as follows: Acute toxicity, two species (overall statement). The note with it: oral and intraperitoneal. The class given is in vivo, Rat; Mouse.
Excerpt: as §5

Series [12] can be described thus: Subchronic toxicity in rat (six months). The format is in vivo. The note with it: 100, 300 and 1000 mg/kg/day. From the text:
ITA 275 was given during six months to rats at the same doses as in the preceding test. The number of animals used was of 100 (.male./.female.=50/50).

The mark [13] stands for this setting: ip, confidence limits on next printed line.
Setting [14] is: ip, confidence limits printed on next line.
The mark [15] stands for this setting: rabbit, oral, 500 mg/kg, ***p < 0,005.
The mark [16] stands for this setting: rabbit, 0,1 ml/kg sol. 20% (topic).

On to `CN(Cc1cc(Br)cc(Br)c1N)C1CCCCC1` [Bisolvon, Bromhexine], for which, in series [1], the “Secretogogial activity (in words)” value was “below statistical significance and did not follow a constant dose-effect sequence”. Besides, the “% increase with regard to controls” value in series [2] (20 mg/kg p.o.) is recorded as 20,6%. The “% increase with regard to controls” value in [2] (40 mg/kg p.o.) was 38,1%. Besides, in series [3], the “absorption when orally administered (in words)” value is “well adsorbed when orally administered” and the “side effects (in words)” value is “practically no side effects”. For the same compound, in [4] (p.o.), the median effective dose (ED50) result is “no corre-” and the “Max. efficiency % secretion increase” value was 14,8%. Further, in series [5] (rabbit, oral, 40 mg/kg), the “% Increase Muco-proteins” value is 4,9 ± 8,9%, the “% Increase SH Groups” value is 0,3 ± 13,4%, the “% Increase mucus weight” value was -6,1 ± 8,3% and the “% Increase total proteins” value is listed as 3,1 ± 14,4%. Further, in series [6] (i.p.), the “Max. efficiency % secretion increase” value is given as 26,0%. In addition, the ED25 in series [6] (ip, read-out: ED25) came out at 32 mg/kg. Further, in [6] (p.o.), the ED25 entry is recorded as “no corre-” and the “Max. efficiency % secretion increase” value is 34,7%.

Take `CC(C)=CCSC[C@H](N)C(=O)O` [ITA 275, S-(3-methyl-2-butenyl)-cysteine]: in series [7], the general behaviour result is reported as “No abnormalities”; the hematological values result is reported as “remained normal”; the liver weight entry is reported as “slight increase in liver weight”; the “weight increase, food and water intake” value is “did not modify either the weight increase or the food and water intake”. Further, the “weight of all other organs” value in series [7] was “did not undergo weight changes”. In addition, in [8] (setting [13]), the LD50 turned out to be 3100 mg/kg. Moreover, the LD50 in series [8] (po) is more than 4000 mg/kg. The LD50 in series [9] (setting [14]) is 2090 mg/kg. The compound further came in with a median lethal dose (LD50) in series [9] (po) of more than 4000 mg/kg. In addition, in series [1], the “Secretogogial activity (in words)” value was “showed activity”. Also, the “% increase with regard to controls” value in series [2] (500 mg/kg p.o.) is listed as 135,6%. Besides, the “Expectorant activity compared with S-carboxymethylcysteine (in words)” value in [2] (oral route) was “somewhat more active than S-carboxymethylcysteine”. Further, the “Max. efficiency % secretion increase” value in [4] (p.o.) is recorded as 57,0%. In addition, the ED50 in series [4] (po, read-out: ED50) came to 447 mg/kg. Further, in [5] (rabbit), the “content of total proteins (in words)” value is given as “increase in the content of total proteins”, the “mucolytic property demonstrated by the release of -SH groups (in words)” value is reported as “does not present the mucolytic property of N-acetylcysteine” and the “mucus elimination (in words)” value is “great increase in mucus elimination”. Moreover, in series [5] (rabbit, oral, 500 mg/kg), the “% Increase SH Groups” value is recorded as 29,2 ± 14,4% and the “% Increase mucus weight” value is 466,1 ± 343,5%. For the same compound, in [5] (setting [15]), the “% Increase Muco-proteins” value is listed as 32,7 ± 14,3%. Also, the “% increase of ciliary transport time” value in series [10] (10 mM, 0 min, p<0,001) is 162,3 ± 13,4%. The “% increase of ciliary transport time” value in series [10] (10 mM, 10 min, p<0,01) is reported as 107,3 ± 21,8%. The “% increase of ciliary transport time” value in [10] (10 mM, 20 min) is given as 16,2 ± 7,6%. Also, in [10] (isolated dog trachea), the “duration of the increase in transport time” value is “at least 20 min”. Also, in series [11], the “acute toxicity (in words)” value was “very low acute toxicity both by oral and intraperitoneal routes”; the “acute toxicity compared with S-carboxymethylcysteine (in words)” value is on record as “even smaller than that of S-carboxymethylcysteine”. Moreover, the tolerability entry in series [12] is “well tolerated”. For the same compound, the “Max. efficiency % secretion increase” value in series [6] (i.p.) is 42,7%. The ED25 in [6] (ip, read-out: ED25) stood at 218 mg/kg. Further, the “Max. efficiency % secretion increase” value in series [6] (p.o.) is 20,7%. Further, the ED25 in series [6] (po, read-out: ED25) stood at 611 mg/kg.

In the case of `CC(=O)N[C@@H](CS)C(=O)O` [N-acetylcysteine], in series [5] (setting [16]), the “% Increase mucus weight” value is 150,9 ± 30,8% and the “% Increase total proteins” value is reported as 491,4 ± 311,1%. For the same compound, the “% Increase Muco-proteins” value in series [5] (rabbit, 0,1 ml/kg sol. 20% (topic), **p < 0,01) was 2450,3 ± 480,5%. For the same compound, the “% Increase SH Groups” value in series [5] (rabbit, 0,1 ml/kg sol. 20% (topic), *p < 0,1) is listed as 305,5 ± 102,9%.

As to `N[C@@H](CSCC(=O)O)C(=O)O` [S-Carboxymethylcysteine, S-carboxymethylcysteine], the 50% lethal dose (LD50) in series [8] (setting [13]) was 2480 mg/kg; in series [8] (po), more than 4000 mg/kg; in series [9] (setting [14]) it was 1780 mg/kg; in [9] (po), more than 4000 mg/kg. For the same compound, in [1], the “Secretogogial activity (in words)” value was “below statistical significance and did not follow a constant dose-effect sequence”. For the same compound, in [2] (500 mg/kg p.o.), the “% increase with regard to controls” value is 110,9%. For the same compound, the “Max. efficiency % secretion increase” value in series [4] (p.o.) is 39,3%; in series [6] (i.p.), 22,3%; in [6] (p.o.), 6,3%. In addition, the ED50 in series [4] (po, read-out: ED50) was 1070 mg/kg. Moreover, in series [5] (rabbit, oral, 500 mg/kg), the “% Increase SH Groups” value is listed as 11,6 ± 34,2%. In addition, the “% Increase mucus weight” value in series [5] (rabbit, oral, 500 mg/kg) is reported as 16,4 ± 44,9%. For the same compound, the “% Increase total proteins” value in series [5] (rabbit, oral, 500 mg/kg) is given as 31,7 ± 27,4%. Moreover, the “% Increase Muco-proteins” value in series [5] (setting [15]) is 131,9 ± 91,8%. Besides, the ED25 in series [6] (ip, read-out: ED25) was 764 mg/kg; in series [6] (p.o.), “no corre-”.

Take `COc1cc2c3cc1Oc1cc(ccc1O)C[C@@H]1c4c(cc(OC)c(O)c4Oc4ccc(cc4)C[C@@H]3N(C)CC2)CC[N+]1(C)C` [d-turbocurarine]: the “% increase of ciliary transport time” value in [10] (10^-4 g/ml, 0 min) was 69,8 ± 12,3%; in series [10] (10^-4 g/ml, 10 min), 32,3 ± 14,5%.
